Source: US20140179607A9 (IRONWOOD PHARMACEUTICALS, INC, priority 2009, published 2014)
Positions of bridges follow the written chain, without caps; N, C: chain ends. Non-standard residues stand in square brackets, D forms with d. Residues, ends and D or L forms follow the SMILES beside them. pS = N[C@@H](COP(=O)(O)O)C(=O)O

Tests used:
[1] = oral administration at therapeutic dose levels; cited from earlier work
[2] = test system: Calf intestinal alkaline phosphatase (CIP); test: Calf intestinal alkaline phosphatase (CIP) in CIP buffer (NaCl, Tris-HCl pH 8, MgCl2); conditions: 37° C., up to 90 minutes
[3] = target: T1, Calf intestinal alkaline phosphatase (CIP) (Bos taurus, UniProt P19111); test: Alkaline phosphatase reaction (dephosphorylation of peptide substrates, LCMS); type: in vitro ADME
T1 construct: purchased New England BioLabs, Ipswich, Mass; M0290S
Experimental: (§1) For the alkaline phosphatase reactions, peptide stocks were prepared at 1 mg/mL in 0.1 M Tris-HCl pH 8, which were stored at −20° C. until assays were conducted. For the acid phosphatase reactions, peptide stocks were prepared at 1 mg/mL in 50 mM sodium phosphate pH 6, which was stored at −20° C. until assays were conducted.
Calf intestinal alkaline phosphatase (CIP) was obtained from New England BioLabs, Ipswich, Mass. Cat # M0290S. The CIP reaction solution was prepared by dilution with buffer (50 mM KCl, 10 mM Tris-HCl pH 8, 1 mM MgCl2, 50% glycerol) to 0.5 units/μL. The alkaline phosphatase reaction solutions were assembled in 20 μL quantities containing: • 2 μL 10× CIP buffer (1M NaCl, 500 mM Tris-HCl pH 8, 100 mM MgCl2) • 2 μL peptide stock (1 mg/mL) • 12 μL H2O • 4 μL alkaline phosphatase (0, 0.5 or 2 units)
The reaction solutions were mixed gently and incubated for 90 minutes at 37° C. These reaction solutions were stored at −20° C. until analysis. For analysis, the reaction solutions were diluted from 7.5 μL of CIP treated peptide to 50 μL with 0.1% formic acid in water to a final concentration of 10 μM.
Control reactions were assembled for enzyme activity containing 10 mM p-nitrophenylphosphate in place of peptide. After incubation, the reactions were diluted with 0.1 mL of 100 mM borate buffer pH 9 and read at the absorbance of 405 nm to monitor p-nitrophenol appearance.

[4] = In vitro metabolism in mouse jejunum loop fluid; type: in vitro ADME; conditions: for metabolism in mouse jejunum fluid (words) / remaining at 2 h, 100 μg/mL: 37° C.; for metabolism in mouse jejunum fluid (words): up to 120 minutes; for remaining at 2 h, 100 μg/mL: mouse jejunum loop fluid, pH 8, mouse jejunal loop fluid, after 120 minutes, read-out: percent remaining
Experimental: The purpose of this study was to determine the stability of phosphorylated peptides in mouse jejunal loop fluid. […] The isotopically labeled peptide 2 was synthesized with ^13C, ^15N-labeled alanine and leucine (i.e., with a sequence CCpS[^13C6, ^15N]LCCNP[^13C6, ^15N]ACTGC).
Each peptide was synthesized by American Peptide Company, Inc., and was stored desiccated at −20° C. A 1 mg/mL solution for each of the non-labeled peptides was prepared in 1 M tris (hydroxymethyl) aminomethane hydrochloride (Tris-HCl), pH 8 just prior to conducting the mouse intestinal loop fluid assay. A 500 ng/mL solution of ^13C, ^15N-labeled peptide 2 was prepared in 0.1% formic acid in water and was utilized to dilute the jejunum samples for post-assay LC-MS/MS analysis.
To collect the fluid, mice were fasted overnight with full access to water. They were then anesthetized with isofluorane for surgery and subjected to laparotomy in which the small intestine was exteriorized. Jejunum loops of 3 to 4 cm in length were made with sutures starting at 7 cm from the pyloric sphincter of the stomach. Once the loops were formed, they were injected with 200 μL of phosphate buffered saline (PBS) buffer (10 mM, pH 7.4). The abdominal wall and skin of the animals were then sutured, and the animals were allowed to recover for 30 minutes. Following recovery, the animals were sacrificed, the loops were then excised and the fluid inside was recovered and stored at −80° C. until use.
For each peptide, 25 μL of the 1 mg/mL peptide stock solution was added to 25 μL of 1 M Tris-HCl and 25 μL of 10× calf intestinal phosphatase (CIP) buffer containing 500 mM Tris-HCl, 1 M sodium chloride (NaCl), 0.1 mM magnesium chloride (MgCl2), pH 8. The reactions were initiated by adding 175 μL of the mouse jejunum loop fluid or 175 μL of the 1 M Tris-HCl pH8 buffer for the control reactions. The final concentration of each peptide was 100 μg/mL. The reactions were continuously mixed and maintained at 37° C. on a plate shaker. At 0, 2, 5, 10, 20, 30, 60, 90 and 120 minutes after adding the mouse intestinal loop fluid, a 25 μL aliquot was taken and added to 25 μL of 4° C. 12% trichloroacetic acid to stop the reaction. An additional 200 μL of 0.1% formic acid in water was added to these reactions for dilution purposes. These samples were then further diluted by taking 20 μL of each sample and adding it to 480 μL of 0.1% formic acid in water containing 500 ng/mL of the internal standard 13C, 15N -labeled peptide 2.
All samples were analyzed using an Applied Biosystems/MDS SCIEX API 4000 triple quadrupole mass spectrometer equipped with a high-performance liquid chromatography (HPLC) system. The mass spectrometer was operated in multiple reaction monitoring (MRM) mode, with resolution set to 1.2 Da.
The LC-MS/MS data were processed using Analyst version 1.4.2 software (Applied Biosystems/MDS SCIEX). The peak area ratio (ratio of analyte peak area to internal standard peak area) was used to calculate the percent remaining of each peptide.

[5] = test system: Potato acid phosphatase (PoAP); test: Potato acid phosphatase (PoAP) in sodium acetate pH 5, MgCl2; conditions: 37° C., up to 90 minutes
[6] = test system: human prostate acid phosphatase (HuPrAP); test: human prostate acid phosphatase (HuPrAP) in sodium acetate pH 5, MgCl2; conditions: 37° C., up to 90 minutes
[7] = target: T2, human prostate acid phosphatase (HuPrAP) (Homo sapiens, UniProt P15309); test: Acid phosphatase reaction, human prostate acid phosphatase; type: in vitro ADME; conditions: Human prostatic acid phosphatase pH 5, 90 minutes at 37° C.
T2 construct: purchased MP Biochemicals, Solon, Ohio 153872
T2 sequence (P15309 33-386): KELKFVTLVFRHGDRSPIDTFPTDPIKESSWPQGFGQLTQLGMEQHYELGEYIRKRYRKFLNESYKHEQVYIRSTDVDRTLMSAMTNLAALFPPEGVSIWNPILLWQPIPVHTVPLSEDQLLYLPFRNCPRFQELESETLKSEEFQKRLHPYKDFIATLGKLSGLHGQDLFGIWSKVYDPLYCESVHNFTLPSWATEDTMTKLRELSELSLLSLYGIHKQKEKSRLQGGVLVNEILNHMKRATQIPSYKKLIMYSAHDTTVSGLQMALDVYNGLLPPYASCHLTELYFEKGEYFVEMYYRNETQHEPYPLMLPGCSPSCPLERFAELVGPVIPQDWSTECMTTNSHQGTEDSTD
Experimental: as §1
(§2) Potato acid phosphatase (PoAP) was obtained from Sigma, St. Louis, Miss. Cat #P1146 and human prostate acid phosphatase (HuPrAP) was obtained from MP Biochemicals, Solon, Ohio. Cat # 153872. The acid phosphatases were dissolved to provide a solution containing 0.5 units AP/μL using 50 mM sodium acetate pH 5, 0.2 mM MgCl2. The acid phosphatase reactions were assembled in 20 μL quantities containing: • 2 μL 10× acid phosphatase buffer (500 mM sodium acetate pH 5, 2 mM MgCl2) • 2 μL peptide stock (1 mg/mL) • 12 μL H2O • 4 μL acid phosphatase (0.5 or 2 units)
(§3) The reaction solutions were mixed gently and incubated for 90 minutes at 37° C. The reaction solutions were stored at −20° C. for later analysis. For analysis, 7.5 μL acid phosphatase reactions were diluted to 50 μL with 0.1% formic acid in water to a final concentration of 10 μM. The control reactions for enzyme activity were assembled and diluted to 10 mM p-nitrophenylphosphate in place of peptide. After incubation, the reactions were diluted with 0.1 mL of 100 mM borate buffer pH 9 and read at the absorbance of 405 nm to monitor p-nitrophenol appearance.

[8] = test system: Potato acid phosphatase (PoAP); test: Acid phosphatase reaction, potato acid phosphatase; type: in vitro ADME; conditions: Potato acid phosphatase pH 5, 90 minutes at 37° C.
Experimental: as §1, §2, §3

[9] = mouse jejunum loop fluid (loops injected with 200 μL PBS, fluid recovered after 30 minutes); conditions: 37° C., up to 120 minutes
[10] = Alkaline phosphatase pH 8, 90 minutes at 37° C.

T1 sequence (P19111 20-506): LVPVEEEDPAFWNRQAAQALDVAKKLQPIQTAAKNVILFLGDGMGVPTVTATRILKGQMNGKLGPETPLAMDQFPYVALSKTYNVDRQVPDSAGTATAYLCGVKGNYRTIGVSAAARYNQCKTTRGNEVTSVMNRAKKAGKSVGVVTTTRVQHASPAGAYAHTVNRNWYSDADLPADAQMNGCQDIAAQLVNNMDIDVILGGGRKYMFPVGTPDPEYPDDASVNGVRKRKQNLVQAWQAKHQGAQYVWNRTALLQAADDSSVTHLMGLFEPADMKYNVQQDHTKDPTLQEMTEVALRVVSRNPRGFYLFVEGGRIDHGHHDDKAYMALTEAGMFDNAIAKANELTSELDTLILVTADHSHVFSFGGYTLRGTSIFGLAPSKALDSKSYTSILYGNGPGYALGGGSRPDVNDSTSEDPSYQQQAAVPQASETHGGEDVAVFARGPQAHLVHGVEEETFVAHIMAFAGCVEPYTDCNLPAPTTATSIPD

Molecule: C[C@@H]1NC(=O)[C@@H]2CCCN2C(=O)[C@H](CC(N)=O)NC(=O)[C@@H]2CSSC[C@H](N)C(=O)N[C@H]3CSSC[C@H](NC1=O)C(=O)N[C@@H]([C@@H](C)O)C(=O)NCC(=O)N[C@H](C(=O)N[C@@H](Cc1ccc(O)cc1)C(=O)O)CSSC[C@H](NC(=O)[C@H](Cc1ccc(O)cc1)NC(=O)[C@H](CCC(=O)O)NC3=O)C(=O)N2 [linaclotide] (H-CCEYCCNPACTGCY-OH; disulfide 1-6, 2-10, 5-13)
- levels seen systemically after oral administration [1]: no detectable levels

Molecule: CCELCCNPACTGCY
- not cleaved [2]: not affected by CIP treatment

Molecule: CC(C)C[C@@H]1NC(=O)[C@H](CCC(=O)O)NC(=O)[C@@H]2CSSC[C@@H]3NC(=O)[C@H](C)NC(=O)[C@@H]4CCCN4C(=O)[C@H](CC(N)=O)NC(=O)[C@H](CSSC[C@H](N)C(=O)N2)NC(=O)[C@H](CSSC[C@@H](C(=O)N[C@@H](Cc2ccc(O)cc2)C(=O)O)NC(=O)CNC(=O)[C@H]([C@@H](C)O)NC3=O)NC1=O [Peptide 3, CCELCCNPACTGCY] (H-CCELCCNPACTGCY-OH; disulfide 1-6, 2-10, 5-13 (inferred); N-terminus and C-terminus assumed)
- Effect of CIP treatment on peptide (LC-MS) ([3]; with and without calf intestinal alkaline phosphatase, data not shown): not affected by CIP treatment
- metabolism in mouse jejunum fluid (words) [4]: not detected after 90 minutes
- metabolism in mouse jejunum fluid (words) ([4]; listed as peptide 3): degraded faster in mouse intestinal fluid than peptide 2

Molecule: CCpSLCCNPACTGCY
- fragment found [5]: Dephospho-Peptide 1
- fragment found [6]: Dephospho-Peptide 1
- fragment found [2]: Dephospho-Peptide 1

Molecule: CC(C)C[C@@H]1NC(=O)[C@H](CO)NC(=O)[C@@H]2CSSC[C@@H]3NC(=O)[C@H](C)NC(=O)[C@@H]4CCCN4C(=O)[C@H](CC(N)=O)NC(=O)[C@H](CSSC[C@H](N)C(=O)N2)NC(=O)[C@H](CSSC[C@@H](C(=O)O)NC(=O)CNC(=O)[C@H]([C@@H](C)O)NC3=O)NC1=O [Dephospho-Peptide 2, CCSLCCNPACTGC] (H-CCSLCCNPACTGC-OH; disulfide 1-6, 2-10, 5-13 (inferred); N-terminus and C-terminus assumed)
- metabolism in mouse jejunum fluid (words) [4]: degraded faster in mouse intestinal fluid than peptide 2
- remaining at 2 h, 100 μg/mL [4]: 5.6%

Molecule: CC(C)C[C@@H]1NC(=O)[C@H](COP(=O)(O)O)NC(=O)[C@@H]2CSSC[C@@H]3NC(=O)[C@H](C)NC(=O)[C@@H]4CCCN4C(=O)[C@H](CC(N)=O)NC(=O)[C@H](CSSC[C@H](N)C(=O)N2)NC(=O)[C@H](CSSC[C@@H](C(=O)O)NC(=O)CNC(=O)[C@H]([C@@H](C)O)NC3=O)NC1=O [Peptide 2, CCpSLCCNPACTGC] (H-CC[pS]LCCNPACTGC-OH; disulfide 1-6, 2-10, 5-13 (inferred); N-terminus and C-terminus assumed)
- Dephospho (%) [7]: 4.1%
- remaining at 1.5 h, 0.1 mg/mL ([7]; human prostate acid phosphatase (HuPrAP)): 95.9%
- Dephospho (%) [3, 10]: 100%
- remaining at 1.5 h, 0.1 mg/mL ([3]; calf, calf intestinal alkaline phosphatase (CIP), Alkaline phosphatase pH 8, 90 minutes at 37° C.): 0%
- formation of metabolite dephospho-peptide 2 ([4]; mouse jejunum loop fluid at 37° C.): Formation of dephospho-peptide 2 was observed
- remaining at 2 h, 100 μg/mL [4]: 5.3%

Molecule: O=[N+]([O-])c1ccc(OP(=O)(O)O)cc1 [p-nitrophenylphosphate, reference compound]
- Dephospho (%) [7]: 100%
- Remaining (%) [7]: 0%
- Dephospho (%) [3, 10]: 100%
- Remaining (%) [3, 10]: 0%
- Dephospho (%) [8]: 100%
- Remaining (%) [8]: 0%

Molecule: CCpSLCCNPACTGC
- fragment found [9]: dephospho-peptide 2
- fragment found [6]: Dephospho-Peptide 2
- fragment found [2]: Dephospho-Peptide 2
